The values below come from US20240408053A1, “ENTERITIS-SUPPRESSING COMPOSITION” (KOBE GAKUIN EDUCATIONAL FOUNDATION, priority 2021, published 2024).

Marks after values point to notes of the source that are not given here.

The test system of data set [1] is CYP2E1. The data set can be described thus: Western blotting of CYP2E1 in colon tissue. Type of data set: in vivo, mice. The note with it: group ES: 2.0% v/v ethanol diet + 2.5 mg sesaminol per day oral, 2 weeks, vs group E. From the text: (§1) Chronic consumption of an excessive amount of ethanol has been reported to increase CYP2E1 and iNOS levels and cause ethanol-induced oxidative stress in the liver and other tissues. The nuclear factor erythroid 2-related factor 2/heme oxygenase-1 (Nrf2/HO-1) system has also been reported to be widely involved in the protection of cells from oxidative damage. Therefore, the expression levels of these proteins (CYP2E1, iNOS, and HO-1) in mouse colon tissue in the four groups (groups C, S, E, and ES) were examined by western blotting (WB).
(§2) A colon tissue sample (100 mg) was homogenized in 1 mL of an M-PER mammalian protein extraction reagent (Pierce) containing a diluent of a protease inhibitor cocktail (Nacalai Tesque, Inc.), and the resulting homogenate was centrifuged at 20,000× g at 4° C. for 15 minutes. The protein concentration of the supernatant was measured with a protein assay reagent (Bio-Rad Laboratories, Inc.), and equal amounts of proteins were subjected to SDS-PAGE. Electrophoresed proteins in the gel were transferred to a PVDF membrane, and the membrane was immersed in a blocking reagent (room temperature, overnight). The primary antibody (rabbit polyclonal antibody) was then reacted. […] The band intensities were quantified with ImageJ.
A general note: In western blotting, separated proteins are transferred to a membrane and probed.

The test system of data set [2] is HO-1. The data set can be described thus: Western blotting of HO-1 in colon tissue. Particulars: group ES: 2.0% v/v ethanol diet + 2.5 mg sesaminol per day oral, 2 weeks; group E significantly lower than group C. It counts as in vivo, mice.
Text: as §1, §2

Data set [3] has as its system Nrf2. The data set can be described thus: Nrf2 activation level in colon tissue extracts by ELISA. The note with it: group ES: 2.0% v/v ethanol diet + 2.5 mg sesaminol per day oral, 2 weeks; group E significantly reduced. Type of data set: in vivo, mice. The procedure:
The Nrf2 transcription factor is a master regulator of cytoprotection and promotes HO-1 gene expression in intracellular response to oxidative stress. Thus, in terms of the decrease in the HO-1 expression level in group E, the activation level of the Nrf2 transcription factor was examined. The protein amounts in the colon tissue extracts of the groups were adjusted to be equal, and Nrf2 activation levels in the colon tissue extracts were determined by ELISA.

Data set [4] concerns IL-6. As to the kind of experiment: IL-6 expression in colon tissue (qRT-PCR, ELISA). Type of data set: in vivo, mice. Particulars: group ES: 2.0% v/v ethanol diet + 2.5 mg sesaminol per day oral, 2 weeks, vs group E; higher than group C. The source says: (§3) It has been reported that chronic consumption of an excessive amount of ethanol can induce inflammation associated with tumor formation in colon tissue. Therefore, in order to verify whether oral administration of sesaminol has a preventive effect on ethanol-induced colitis, the expression levels of inflammatory cytokines (TNF-α and IL-6) and chemokine (MCP-1) in the large intestinal lamina propria of the mice in the four groups (groups C, S, E, and ES) were examined by qRT-PCR and ELISA. The NF-κB activity in the mice in the four groups was also examined. NF-κB is a transcription factor that is involved in expression of genes regulating inflammation and is activated by exposure of immune cells to pro-inflammatory factors.
Total RNA was extracted from colon tissue samples. […]
A colon tissue sample (100 mg) was homogenized in 1 mL of an M-PER mammalian protein extraction reagent (Pierce) containing a diluent of a protease inhibitor cocktail (Nacalai Tesque, Inc.), and the resulting homogenate was centrifuged at 20,000× g at 4° C. for 15 minutes. The protein concentration of the supernatant was measured with a protein assay reagent (Bio-Rad Laboratories, Inc.), and equal amounts of proteins were used for analysis of the expression levels of TNF-α, IL-6, and MCP-1 by ELISA.
For orientation: Quantitative PCR measures a nucleic acid by following its amplification.

In data set [5] the test system is NF-κB p65. The data set can be described thus: NF-κB p65 activation level in colon tissue extract by ELISA. It counts as in vivo, mice. Particulars: group ES: 2.0% v/v ethanol diet + 2.5 mg sesaminol per day oral, 2 weeks, vs group E.
Text: as §3
A general note: In an ELISA, binding on a coated surface is turned into a signal by an enzyme label.

Data set [6] is described as follows: Body weight and percentage of liver weight relative to body weight, 4 weeks. Type of data set: in vivo, mice. The note with it: mean ±SD. The source says: (§4) The liver function and plasma lipid level in the mice in each group were examined by measuring the percentage of the liver weight relative to the body weight, the triglyceride (TG) concentration in the liver, the aspartate aminotransferase (AST) activity in the plasma, the alanine aminotransferase (ALT) activity in the plasma, and the TG concentration in the plasma of the mice in each group.
The body weight of mice fed for 4 weeks were weighed and dissected under anesthesia. The liver was removed and weighed. The weight ratio between the body weight and the liver of each individual was evaluated.

The nature of data set [7]: AST and ALT activities and TG concentration in the plasma, 4 weeks. It counts as in vivo, mice. Particulars: mean ±SD. The procedure:
as §4
The AST and ALT activities and TG concentration in the plasma were measured according to the product protocol using dedicated reagent kits for each test item (L-Type Wako AST, L-Type Wako ALT, and L-Type Wako TG M, produced by FUJIFILM Wako Pure Chemical Corporation).

Data set [8] concerns fecal mucin. As to the kind of experiment: Amount of fecal mucin of mice. The note with it: group ES: 2.0% v/v ethanol diet + 2.5 mg sesaminol per day oral, 4 weeks, vs group E; level similar to group C. It counts as in vivo. The source says: The effect of oral administration of sesaminol on the amount of mucus secretion in mouse colon was examined by measuring the amount of fecal mucin of the mice in each group (groups C, E, S, and ES) and the amount of secretory immunoglobulin A (sIgA) in the colon tissue of the mice.
Fecal samples were each freeze-dried overnight in a freeze-drying equipment and then formed into a powder. After weighing each of the dried, powdered feces, fecal mucin was quantified according to the product protocol of a reagent kit for measuring fecal mucin (Fecal Mucin Assay Kit, produced by Cosmo Bio Co., Ltd.), and converted to the mucin amount (ug) per amount of dry feces (g). The results were evaluated.

[9] abbreviates: EtOH (2.0% v/v) + Sesaminol group ES.

With `Oc1cc2c(cc1C1OCC3C(c4ccc5c(c4)OCO5)OCC13)OCO2` (stereo not shown) [Sesaminol], in data set [1], the CYP2E1 expression level result is on record as “significantly lower than that in group E”. The HO-1 expression level result in data set [2] is listed as “recovery of the expression level”. In addition, the Nrf2 activation level entry in data set [3] is given as “recovered to a level similar to that in group C”. In addition, the “expression level of IL-6 (mRNA by qRT-PCR, protein by ELISA)” value in data set [4] is “significantly lower than those in group E”. Further, in data set [5], the “NF-κB p65 activation level” value is on record as “significantly lower than that in group E”. For the same molecule, in data set [6] (setting [9]), the Body weight was determined as 25.4 ± 1.0 g and the Liver/body weight ratio is reported as 4.04 ± 0.41 g/g, %. Also, in data set [6] (Sesaminol (2.5 mg/d) group S), the Body weight turned out to be 25.9 ± 0.8 g and the Liver/body weight ratio is on record as 3.96 ± 0.55 g/g, %. Further, in data set [7] (setting [9]), the “Plasma ALT” value is reported as 45.8 ± 6.6*^, †, ### U/L; the “Plasma AST” value was determined as 43.5 ± 7.6 U/L; the “Plasma TG” value turned out to be 0.65 ± 0.13 mmol/L. Also, in data set [7] (Sesaminol (2.5 mg/d) group S), the “Plasma ALT” value is 33.3 ± 5.7 U/L, the “Plasma AST” value came to 41.3 ± 6.8 U/L and the “Plasma TG” value stood at 0.53 ± 0.14 mmol/L. Moreover, the “amount of fecal mucin” value in data set [8] was “significantly higher than that in group E”.
